Data taken from the supplement of paper PMC10307832.

Legend:
Assay in all cases: relative viability (nuclei count vs DMSO), 5 days (fraction); higher = more cells survive
COR-L 105 = test system: COR-L 105
Procedure, shortened: (§1)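 Relative viability was taken as the ratio of nuclei in treated wells to nuclei in vehicle wells. Lung cancer cell lines in 1536-well plates received compounds by pin tool one day after seeding, either one drug alone or a fixed anchor-drug dose plus five library-drug doses (not always all listed) in √10 steps. Nuclei were counted on 4× images after 5 days of treatment, and values are medians of duplicate plates.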

LCLC-103H = test system: LCLC-103H
Procedure, shortened: as §1

LK-2 = test system: LK-2
Procedure, shortened: as §1

NCI-H1355 = test system: NCI-H1355
Procedure, shortened: as §1

NCI-H1623 = test system: NCI-H1623
Procedure, shortened: as §1

NCI-H1648 = test system: NCI-H1648
Procedure, shortened: as §1

NCI-H1666 = test system: NCI-H1666
Procedure, shortened: as §1

NCI-H520 = test system: NCI-H520
Procedure, shortened: as §1

NCI-H522 = test system: NCI-H522
Procedure, shortened: as §1

Cc1sc2c(c1C)C(c1ccc(Cl)cc1)=N[C@@H](CC(=O)OC(C)(C)C)c1nnc(C)n1-2 [JQ1] + Cc1cc(Nc2cc(N3CCN(C)CC3)nc(Sc3ccc(NC(=O)C4CC4)cc3)n2)n[nH]1 [Tozasertib] (partner 0.1 µM)
relative viability (COR-L 105; first compound 0.04 µM): 0.359 | relative viability (COR-L 105; first compound 0.1265 µM): 0.315 | relative viability (COR-L 105; first compound 0.4 µM): 0.297 | relative viability (COR-L 105; first compound 1.265 µM): 0.235 | relative viability (COR-L 105; first compound 4 µM): 0.112 | relative viability (LCLC-103H; first compound 0.04 µM): 0.429 | relative viability (LCLC-103H; first compound 0.1265 µM): 0.384 | relative viability (LCLC-103H; first compound 0.4 µM): 0.288 | relative viability (LCLC-103H; first compound 1.265 µM): 0.289 | relative viability (LCLC-103H; first compound 4 µM): 0.171 | relative viability (LK-2; first compound 0.04 µM): 0.18 | relative viability (LK-2; first compound 0.1265 µM): 0.192 | relative viability (LK-2; first compound 0.4 µM): 0.195 | relative viability (LK-2; first compound 1.265 µM): 0.151 | relative viability (LK-2; first compound 4 µM): 0.166 | relative viability (NCI-H1355; first compound 0.04 µM): 0.522 | relative viability (NCI-H1355; first compound 0.1265 µM): 0.387 | relative viability (NCI-H1355; first compound 0.4 µM): 0.324 | relative viability (NCI-H1355; first compound 1.265 µM): 0.23 | relative viability (NCI-H1355; first compound 4 µM): 0.202 | relative viability (NCI-H1623; first compound 0.04 µM): 0.493 | relative viability (NCI-H1623; first compound 0.1265 µM): 0.367 | relative viability (NCI-H1623; first compound 0.4 µM): 0.404 | relative viability (NCI-H1623; first compound 1.265 µM): 0.375 | relative viability (NCI-H1623; first compound 4 µM): 0.335 | relative viability (NCI-H1648; first compound 0.04 µM): 0.495 | relative viability (NCI-H1648; first compound 0.1265 µM): 0.516 | relative viability (NCI-H1648; first compound 0.4 µM): 0.243 | relative viability (NCI-H1648; first compound 1.265 µM): 0.153 | relative viability (NCI-H1648; first compound 4 µM): 0.137 | relative viability (NCI-H1666; first compound 0.04 µM): 0.569 | relative viability (NCI-H1666; first compound 0.1265 µM): 0.534 | relative viability (NCI-H1666; first compound 0.4 µM): 0.484 | relative viability (NCI-H1666; first compound 1.265 µM): 0.36 | relative viability (NCI-H1666; first compound 4 µM): 0.354 | relative viability (NCI-H520; first compound 0.04 µM): 0.508 | relative viability (NCI-H520; first compound 0.1265 µM): 0.406 | relative viability (NCI-H520; first compound 0.4 µM): 0.332 | relative viability (NCI-H520; first compound 1.265 µM): 0.296 | relative viability (NCI-H520; first compound 4 µM): 0.25 | relative viability (NCI-H522; first compound 0.04 µM): 0.598 | relative viability (NCI-H522; first compound 0.1265 µM): 0.503 | relative viability (NCI-H522; first compound 0.4 µM): 0.454 | relative viability (NCI-H522; first compound 1.265 µM): 0.434 | relative viability (NCI-H522; first compound 4 µM): 0.339

COc1cc2nccc(Oc3ccc(NC(=O)Nc4cc(C)on4)c(Cl)c3)c2cc1OC [Tivozanib] + Cc1cc(Nc2cc(N3CCN(C)CC3)nc(Sc3ccc(NC(=O)C4CC4)cc3)n2)n[nH]1 [Tozasertib] (partner 0.1 µM)
relative viability (COR-L 105; first compound 0.005 µM): 0.366 | relative viability (COR-L 105; first compound 0.01581 µM): 0.371 | relative viability (COR-L 105; first compound 0.05 µM): 0.406 | relative viability (COR-L 105; first compound 0.1581 µM): 0.374 | relative viability (COR-L 105; first compound 0.5 µM): 0.493 | relative viability (LCLC-103H; first compound 0.005 µM): 0.525 | relative viability (LCLC-103H; first compound 0.01581 µM): 0.503 | relative viability (LCLC-103H; first compound 0.05 µM): 0.449 | relative viability (LCLC-103H; first compound 0.1581 µM): 0.51 | relative viability (LCLC-103H; first compound 0.5 µM): 0.549 | relative viability (LK-2; first compound 0.005 µM): 0.173 | relative viability (LK-2; first compound 0.01581 µM): 0.175 | relative viability (LK-2; first compound 0.05 µM): 0.159 | relative viability (LK-2; first compound 0.1581 µM): 0.172 | relative viability (LK-2; first compound 0.5 µM): 0.177 | relative viability (NCI-H1355; first compound 0.005 µM): 0.515 | relative viability (NCI-H1355; first compound 0.01581 µM): 0.576 | relative viability (NCI-H1355; first compound 0.05 µM): 0.57 | relative viability (NCI-H1355; first compound 0.1581 µM): 0.614 | relative viability (NCI-H1355; first compound 0.5 µM): 0.53 | relative viability (NCI-H1623; first compound 0.005 µM): 0.42 | relative viability (NCI-H1623; first compound 0.01581 µM): 0.467 | relative viability (NCI-H1623; first compound 0.05 µM): 0.47 | relative viability (NCI-H1623; first compound 0.5 µM): 0.424 | relative viability (NCI-H1648; first compound 0.005 µM): 0.482 | relative viability (NCI-H1648; first compound 0.01581 µM): 0.534 | relative viability (NCI-H1648; first compound 0.05 µM): 0.436 | relative viability (NCI-H1648; first compound 0.1581 µM): 0.536 | relative viability (NCI-H1648; first compound 0.5 µM): 0.545 | relative viability (NCI-H1666; first compound 0.005 µM): 0.538 | relative viability (NCI-H1666; first compound 0.01581 µM): 0.605 | relative viability (NCI-H1666; first compound 0.05 µM): 0.668 | relative viability (NCI-H1666; first compound 0.1581 µM): 0.628 | relative viability (NCI-H1666; first compound 0.5 µM): 0.646 | relative viability (NCI-H520; first compound 0.005 µM): 0.402 | relative viability (NCI-H520; first compound 0.01581 µM): 0.373 | relative viability (NCI-H520; first compound 0.05 µM): 0.446 | relative viability (NCI-H520; first compound 0.1581 µM): 0.444 | relative viability (NCI-H520; first compound 0.5 µM): 0.433 | relative viability (NCI-H522; first compound 0.005 µM): 0.581 | relative viability (NCI-H522; first compound 0.01581 µM): 0.553 | relative viability (NCI-H522; first compound 0.05 µM): 0.581 | relative viability (NCI-H522; first compound 0.1581 µM): 0.536 | relative viability (NCI-H522; first compound 0.5 µM): 0.577
